In PubChem BioAssay AID200 (DTP/NCI, 2004):
Values joined by “and” are separate entries in the source; they are usually repeats but may differ in a detail not shown here. Equal values may be shown once. Inconclusive results and toxic doses are left out. Where a SMILES comes first, the peptide text is derived from it. The star is where a group is joined. Cbz = O=C(OCc1ccccc1)*; Bn = c1ccc(C*)cc1

Test system: B6C3F1 mice, B16 melanoma ip, median survival T/C
Assay: NCI In Vivo Anticancer Drug Screen. Data for tumor model B16 Melanoma (intraperitoneal) in B6C3F1 mice
Conditions: endpoint: median survival time, higher = longer survival
Method in brief: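 Antitumor effect was judged in mice with transplanted tumors by dividing the treated group's survival measure by that of vehicle controls.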

[1] = dose: 6.25 mg/kg/injection, schedule: Q01DX009 (ip), vehicle: saline with Tween-80
[2] = dose: 12.5 mg/kg/injection, schedule: Q01DX009 (ip), vehicle: saline with Tween-80
[3] = dose: 50.0 mg/kg/injection, schedule: Q01DX009 (ip), vehicle: saline with Tween-80
[4] = dose: 0.5 mg/kg/injection, schedule: Q01DX009 (ip), vehicle: water
[5] = dose: 100.0 mg/kg/injection, schedule: Q01DX009 (ip), vehicle: Klucel (hydroxypropylcellulose) (HPC)
[6] = dose: 200.0 mg/kg/injection, schedule: Q01DX009 (ip), vehicle: Klucel (hydroxypropylcellulose) (HPC)
[7] = dose: 25.0 mg/kg/injection, schedule: Q01DX009 (ip), vehicle: Klucel (hydroxypropylcellulose) (HPC)
[8] = dose: 50.0 mg/kg/injection, schedule: Q01DX009 (ip), vehicle: Klucel (hydroxypropylcellulose) (HPC)
[9] = dose: 50.0 mg/kg/injection, schedule: Q01DX009 (ip), vehicle: saline
[10] = dose: 100.0 mg/kg/injection, schedule: Q01DX009 (ip), vehicle: saline
[11] = dose: 200.0 mg/kg/injection, schedule: Q01DX009 (ip), vehicle: saline
[12] = dose: 6.25 mg/kg/injection, schedule: Q01DX009 (ip), vehicle: saline
[13] = dose: 12.5 mg/kg/injection, schedule: Q01DX009 (ip), vehicle: saline
[14] = dose: 25.0 mg/kg/injection, schedule: Q01DX009 (ip), vehicle: saline with Tween-80
[15] = dose: 25.0 mg/kg/injection, schedule: Q01DX009 (ip), vehicle: saline
[16] = dose: 100.0 mg/kg/injection, schedule: Q01DX009 (ip), vehicle: saline with Tween-80
[17] = dose: 200.0 mg/kg/injection, schedule: Q01DX009 (ip), vehicle: saline with Tween-80
[18] = dose: 4.0 micrograms/kg/injection, schedule: Q01DX009 (ip), vehicle: distilled water + alcohol
[19] = dose: 8.0 micrograms/kg/injection, schedule: Q01DX009 (ip), vehicle: distilled water + alcohol

## CC(C)OC(=O)c1ccc(C(C)C)cc1
dose: 3.13 mg/kg/injection, schedule: Q01DX009 (ip), vehicle: saline with Tween-80
  T/C: 94 % of control
[1]
  T/C: 96 % of control
[2]
  T/C: 96 % of control and 101 % of control
[3]
  T/C: 90 % of control

## CC[C@]1(O)C[C@H]2CN(CCc3c([nH]c4ccccc34)[C@@](C(=O)OC)(c3cc4c(cc3OC)N(C=O)[C@H]3[C@@](O)(C(=O)OC)[C@H](OC(C)=O)[C@]5(CC)C=CCN6CC[C@]43[C@@H]65)C2)C1
dose: 0.06 mg/kg/injection, schedule: Q01DX009 (ip), vehicle: saline
  T/C: 160 % of control
dose: 0.12 mg/kg/injection, schedule: Q01DX009 (ip), vehicle: saline
  T/C: 159 % of control and 176 % of control
dose: 0.25 mg/kg/injection, schedule: Q01DX009 (ip), vehicle: saline
  T/C: 171 % of control and 196 % of control
dose: 0.5 mg/kg/injection, schedule: Q01DX009 (ip), vehicle: saline
  T/C: 190 % of control
[4]
  T/C: 108 % of control
dose: 31.25 micrograms/kg/injection, schedule: Q01DX009 (ip), vehicle: water
  T/C: 154 % of control
dose: 62.5 micrograms/kg/injection, schedule: Q01DX009 (ip), vehicle: water
  T/C: 186 % of control
dose: 125.0 micrograms/kg/injection, schedule: Q01DX009 (ip), vehicle: water
  T/C: 193 % of control
dose: 250.0 micrograms/kg/injection, schedule: Q01DX009 (ip), vehicle: water
  T/C: 227 % of control

## CCCCC(NC(=O)CN)C(=O)O (stereo not given)
[5]
  T/C: 103 % of control
[6]
  T/C: 107 % of control
dose: 400.0 mg/kg/injection, schedule: Q01DX009 (ip), vehicle: Klucel (hydroxypropylcellulose) (HPC)
  T/C: 122 % of control

## NC(=O)C(Cc1ccccc1)NC(=O)C(CSCc1ccccc1)NC(=O)OCc1ccccc1 (stereo not given) (Cbz-Cys(Bn)-Phe-NH2; configuration not given here)
[7]
  T/C: 91 % of control
[8]
  T/C: 109 % of control and 105 % of control
[5]
  T/C: 100 % of control and 103 % of control

## O=C(O)C1CC(O)CN1 (stereo not given)
[9]
  T/C: 101 % of control
[10]
  T/C: 101 % of control
[11]
  T/C: 96 % of control
dose: 400.0 mg/kg/injection, schedule: Q01DX009 (ip), vehicle: saline
  T/C: 106 % of control
dose: 800.0 mg/kg/injection, schedule: Q01DX009 (ip), vehicle: saline
  T/C: 108 % of control

## c1ccc2c(c1)-c1ccccc1C1NC21 (stereo not given)
[1]
  T/C: 103 % of control
[2]
  T/C: 112 % of control

## CN(C)CCNc1ccc([N+](=O)[O-])c2sc3ccccc3c(=O)c12
[1]
  T/C: 113 % of control
[12]
  T/C: 105 % of control
[2]
  T/C: 117 % of control and 102 % of control
[13]
  T/C: 101 % of control
[14]
  T/C: 118 % of control
[15]
  T/C: 103 % of control
[9]
  T/C: 106 % of control

## CCCCC(=O)OCC1OC(n2cnc3c(=S)nc[nH]c32)C(OC(=O)CCCC)C1OC(=O)CCCC (stereo not given)
[1]
  T/C: 102 % of control
[2]
  T/C: 105 % of control
[14]
  T/C: 108 % of control
[3]
  T/C: 92 % of control

## CC[C@@]1(O)C[C@H](OC2CC(N(C)C)C(OC3CC(O)C(OC4CCC(=O)C(C)O4)C(C)O3)C(C)O2)c2c(cc3c(c2O)C(=O)c2c(O)ccc(O)c2C3=O)[C@H]1C(=O)OC (stereo not given in full)
dose: 0.25 mg/kg/injection, schedule: Q01DX009 (ip), vehicle: water
  T/C: 100 % of control
[4]
  T/C: 120 % of control
dose: 1.0 mg/kg/injection, schedule: Q01DX009 (ip), vehicle: water
  T/C: 156 % of control

## COC(=O)NC1C(C)OC(OC2C/C=C(/C)C3C=CC4C(OC5CC(OC6CC(O)C(OC7CC(O)C(OC)C(C)O7)C(C)O6)C(O)C(C)O5)C(C)CC(C)C4C3(C)/C(O)=C3\C(=O)OC4(CC(C)C(CO)=CC4/C=C\2C)C3=O)CC1(C)[N+](=O)[O-] (stereo not given)
dose: 12.5 mg/kg/injection, schedule: Q01DX009 (ip), vehicle: Klucel (hydroxypropylcellulose) (HPC)
  T/C: 100 % of control and 104 % of control
[7]
  T/C: 110 % of control and 106 % of control
[8]
  T/C: 121 % of control

## CC(O)C(NC(=O)OC(C)(C)C)C(=O)ON1C(=O)CCC1=O (stereo not given)
[3]
  T/C: 98 % of control
[16]
  T/C: 96 % of control
[17]
  T/C: 91 % of control

## CCOC(=O)c1c(C)c(C(=O)OCC)n(CC)c1C=O
[3]
  T/C: 86 % of control
[16]
  T/C: 89 % of control
[17]
  T/C: 93 % of control

## Cc1cc([NH-])c([NH-])cc1C.[Cl][Pt+2][Cl]
dose: 1.25 mg/kg/injection, schedule: Q01DX009 (ip), vehicle: saline with Tween-80
  T/C: 112 % of control
dose: 10.0 mg/kg/injection, schedule: Q01DX009 (ip), vehicle: saline with Tween-80
  T/C: 161 % of control

## COc1cc2cc(c1Cl)N(C)C(=O)CC(OC(=O)C(C)NC(=O)C(C)C)C1(C)OC1C(C)C1CC(O)(NC(=O)O1)C(OC)/C=C/C=C(C)C2OC (stereo not given)
[18]
  T/C: 102 % of control
[19]
  T/C: 114 % of control

## CC(O)CNC1c2ccccc2CC1O (stereo not given)
[15]
  T/C: 90 % of control
[9]
  T/C: 93 % of control
[10]
  T/C: 89 % of control

## [I][Hg][CH2]C1COC([CH2][Hg][I])CO1 (stereo not given)
dose: 3.12 mg/kg/injection, schedule: Q01DX009 (ip), vehicle: saline with Tween-80
  T/C: 93 % of control
dose: 3.12 mg/kg/injection, schedule: Q01DX009 (ip), vehicle: saline
  T/C: 97 % of control
[1]
  T/C: 109 % of control
[12]
  T/C: 101 % of control
[2]
  T/C: 113 % of control
[13]
  T/C: 87 % of control
[14]
  T/C: 119 % of control
[15]
  T/C: 100 % of control
[3]
  T/C: 106 % of control
[9]
  T/C: 99 % of control
[10]
  T/C: 96 % of control

## Cc1c2ccccc2c(C)c2c1ccc1ccccc12
dose: 1.0 mg/kg/injection, schedule: Q01DX009 (ip), vehicle: saline with Tween-80
  T/C: 99 % of control
dose: 2.0 mg/kg/injection, schedule: Q01DX009 (ip), vehicle: saline with Tween-80
  T/C: 106 % of control
dose: 4.0 mg/kg/injection, schedule: Q01DX009 (ip), vehicle: saline with Tween-80
  T/C: 122 % of control
dose: 8.0 mg/kg/injection, schedule: Q01DX009 (ip), vehicle: saline with Tween-80
  T/C: 113 % of control
dose: 16.0 mg/kg/injection, schedule: Q01DX009 (ip), vehicle: saline with Tween-80
  T/C: 86 % of control

## O=C(O)CC(NC(=O)CP(=O)(O)O)C(=O)O (stereo not given)
[15]
  T/C: 160 % of control
dose: 37.5 mg/kg/injection, schedule: Q01DX005 (ip), vehicle: saline
  T/C: 121 % of control
dose: 37.5 mg/kg/injection, schedule: Q01DX005 (iv), vehicle: saline
  T/C: 119 % of control
[9]
  T/C: 172 % of control
dose: 75.0 mg/kg/injection, schedule: Q01DX001 (ip), vehicle: saline
  T/C: 120 % of control
dose: 75.0 mg/kg/injection, schedule: Q01DX001 (iv), vehicle: saline
  T/C: 110 % of control
dose: 75.0 mg/kg/injection, schedule: Q01DX005 (iv), vehicle: saline
  T/C: 123 % of control
[10]
  T/C: 202 % of control
dose: 150.0 mg/kg/injection, schedule: Q01DX001 (iv), vehicle: saline
  T/C: 116 % of control
dose: 150.0 mg/kg/injection, schedule: Q01DX005 (ip), vehicle: saline
  T/C: 178 % of control
dose: 150.0 mg/kg/injection, schedule: Q01DX005 (iv), vehicle: saline
  T/C: 114 % of control
[11]
  T/C: 226 % of control
dose: 300.0 mg/kg/injection, schedule: Q01DX001 (iv), vehicle: saline
  T/C: 115 % of control
dose: 300.0 mg/kg/injection, schedule: Q01DX005 (ip), vehicle: saline
  T/C: 163 % of control

## COc1ccc(C(=O)C(=O)c2ccc(OC)c(OC)c2)cc1OC
dose: 1.56 mg/kg/injection, schedule: Q01DX009 (ip), vehicle: saline
  T/C: 101 % of control
dose: 3.13 mg/kg/injection, schedule: Q01DX009 (ip), vehicle: saline
  T/C: 99 % of control
[12]
  T/C: 97 % of control

## COc1cc2cc(c1Cl)N1CC(O)C(C)(O)C(=O)NC(C)C(=O)OC(CC1=O)C1(C)OC1C(C)C1CC(O)(NC(=O)O1)C(OC)/C=C\C=C(\C)C2OC (stereo not given)
dose: 2.0 micrograms/kg/injection, schedule: Q01DX009 (ip), vehicle: distilled water + alcohol
  T/C: 164 % of control and 165 % of control
[18]
  T/C: 170 % of control and 185 % of control
[19]
  T/C: 176 % of control and 195 % of control and 196 % of control
dose: 16.0 micrograms/kg/injection, schedule: Q01DX009 (ip), vehicle: distilled water + alcohol
  T/C: 183 % of control and 197 % of control and 212 % of control

## CCCC(NC(=O)CNC(=O)OCc1ccccc1)C(=O)O (stereo not given) (HELM PEPTIDE1{[O=C(OCc1ccccc1)[*:2]].G.[CCCC(N[*:1])C(=O)O]}$$$$V2.0)
[5]
  T/C: 104 % of control
[6]
  T/C: 92 % of control
